Patent publication US20260262643A1, “HERBICIDAL BENZOXAZINES” (FMC CORPORATION, priority 2022, published 2026)

Key:
ragweed [1] = test: Test C preemergence; format: in vivo, Ambrosia artemisiifolia; settings: preemergence, 0 to 100 scale (0 no effect, 100 complete control)
How it was run: (§1)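 Visual injury ratings on a 0–100 scale (100 = complete control) were made against untreated controls 10 days after treatment in the greenhouse. Compounds, formulated with surfactant in non-phytotoxic solvent, were sprayed on soil preemergence or onto one- to two-leaf plants 2–10 cm tall postemergence.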

oat, wild [2] = test: Test C preemergence; format: in vivo, Avena fatua; settings: preemergence, 0 to 100 scale (0 no effect, 100 complete control)
How it was run: as §1

corn [3] = test: Test C preemergence; format: in vivo, Zea mays; settings: preemergence, 0 to 100 scale (0 no effect, 100 complete control)
How it was run: as §1

corn [4] = test: Test C postemergence; format: in vivo, Zea mays; settings: 10 days
How it was run: as §1

soybean [5] = test: Test C postemergence; format: in vivo, Glycine max; settings: 125 g ai/ha, postemergence, 10 days; 0 to 100 scale, 0 no effect, 100 complete control
How it was run: as §1

barnyardgrass [6] = test: Test D flooded paddy test; format: in vivo, Echinochloa crus-galli; settings: 250 g ai/ha, applied to paddy water, visual rating after 13 to 14 days, scale 0 to 100 (0 no effect, 100 complete control)
How it was run: (§2)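 Seedlings reached the 2-leaf stage, then pots were flooded to 3 cm over the soil surface. Compound was applied into the water, depth was maintained, and plants stayed in the greenhouse 13 to 14 days before visual scoring (0–100) relative to controls.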

sedge, umbrella = test: Test D flooded paddy test; format: in vivo, Cyperus difformis; settings: 250 g ai/ha, applied to paddy water, visual rating after 13 to 14 days, scale 0 to 100 (0 no effect, 100 complete control)
How it was run: as §2

rice = test: Test D flooded paddy test; format: in vivo, Oryza sativa; settings: 250 g ai/ha, applied to paddy water, visual rating after 13 to 14 days, scale 0 to 100 (0 no effect, 100 complete control)
How it was run: as §2

barnyardgrass [7] = test: Test C preemergence; format: in vivo, Echinochloa crusgalli; settings: 0 to 100 scale (0 no effect, 100 complete control); for Plant response rating, Barnyardgrass: Preemergence, 500 g ai/ha, visual rating after 10 days; for Barnyardgrass plant response rating: Test C, preemergence, 125 g ai/ha
How it was run: as §1

horseweed = test: Test C postemergence; format: in vivo, Erigeron canadensis; settings: 10 days
How it was run: as §1

barnyardgrass [8] = test: Test C postemergence; format: in vivo, Echinochloa crusgalli; settings: 10 days
How it was run: as §1

blackgrass [9] = test: Test C preemergence; format: in vivo, Alopecurus myosuroides; settings: 0 to 100 scale (0 no effect, 100 complete control); for Plant response rating, Blackgrass: Preemergence, 500 g ai/ha, visual rating after 10 days; for Blackgrass plant response rating: Test C, preemergence, 125 g ai/ha
How it was run: as §1

kochia [10] = test: Test C preemergence; format: in vivo, Bassia scoparia; settings: preemergence, 0 to 100 scale (0 no effect, 100 complete control)
How it was run: as §1

ryegrass, Italian [11] = test: Test C postemergence; format: in vivo, Lolium multiflorum; settings: 125 g ai/ha, postemergence, 10 days; 0 to 100 scale, 0 no effect, 100 complete control
How it was run: as §1

green foxtail [12] = test: Test C postemergence; format: in vivo, Setaria viridis; settings: 10 days
How it was run: as §1

pigweed, palmer [13] = test: Test C preemergence; format: in vivo, Amaranthus palmeri; settings: preemergence, 0 to 100 scale (0 no effect, 100 complete control)
How it was run: as §1

ragweed [14] = test: Test C postemergence; format: in vivo, Ambrosia artemisiifolia; settings: 125 g ai/ha, postemergence, 10 days; 0 to 100 scale, 0 no effect, 100 complete control
How it was run: as §1

green foxtail [15] = test: Test C preemergence; format: in vivo, Setaria viridis; settings: preemergence, 0 to 100 scale (0 no effect, 100 complete control)
How it was run: as §1

ryegrass, Italian [16] = test: Test C preemergence; format: in vivo, Lolium multiflorum; settings: preemergence, 0 to 100 scale (0 no effect, 100 complete control)
How it was run: as §1

soybean [17] = test: Test C preemergence; format: in vivo, Glycine max; settings: preemergence, 0 to 100 scale (0 no effect, 100 complete control)
How it was run: as §1

wheat [18] = test: Test C postemergence; format: in vivo, Triticum aestivum; settings: 125 g ai/ha, postemergence, 10 days; 0 to 100 scale, 0 no effect, 100 complete control
How it was run: as §1

kochia [19] = test: Test C postemergence; format: in vivo, Bassia scoparia; settings: 125 g ai/ha, postemergence, 10 days; 0 to 100 scale, 0 no effect, 100 complete control
How it was run: as §1

oat, wild [20] = test: Test C postemergence; format: in vivo, Avena fatua; settings: 125 g ai/ha, postemergence, 10 days; 0 to 100 scale, 0 no effect, 100 complete control
How it was run: as §1

blackgrass [21] = test: Test C postemergence; format: in vivo, Alopecurus myosuroides; settings: 10 days
How it was run: as §1

ducksalad = test: Test D flooded paddy test; format: in vivo, Heteranthera limosa; settings: 250 g ai/ha, applied to paddy water, visual rating after 13 to 14 days, scale 0 to 100 (0 no effect, 100 complete control)
How it was run: as §2

galium = test: Test C postemergence; format: in vivo, Galium aparine; settings: 10 days
How it was run: as §1

pigweed, palmer [22] = test: Test C postemergence; format: in vivo, Amaranthus palmeri; settings: 125 g ai/ha, postemergence, 10 days; 0 to 100 scale, 0 no effect, 100 complete control
How it was run: as §1

wheat [23] = test: Test C preemergence; format: in vivo, Triticum aestivum; settings: preemergence, 0 to 100 scale (0 no effect, 100 complete control)
How it was run: as §1

[24] = 125 g ai/ha, postemergence, 0 to 100 scale, 0 no effect, 100 complete control
[25] = Postemergence, 500 g ai/ha, visual 0 to 100 scale (0 no effect, 100 complete control)

In the case of `COC[C@H]1CN(C(=O)c2cc(-n3cnc(C4CCC4)n3)ccc2C)c2cccc(Cl)c2O1` [Compound 267], the “Ragweed plant response rating” value (ragweed [1]; 500 g ai/ha) is reported as 60, the “Ragweed plant response rating” value (ragweed [1]; Test C, 125 g ai/ha) is reported as 40 and the “Oat, Wild plant response rating” value (oat, wild [2]; 500 g ai/ha) is reported as 60. For the same compound, the “Oat, Wild plant response rating” value (oat, wild [2]; Test C, 125 g ai/ha) was 40, the “Corn plant response rating” value (corn [3]; 500 g ai/ha) was 10 and the “Corn plant response rating” value (corn [3]; Test C, 125 g ai/ha) was 0. The “Plant response rating, Corn” value (corn [4]; [24]) was 50, the “Plant response rating, Corn” value (corn [4]; [25]) was 90 and the “Plant response rating, Soybean” value (soybean [5]) was 100. For the same compound, the “Plant response rating, Barnyardgrass (Flood)” value (barnyardgrass [6]) was 35, the “Plant response rating, Sedge, Umbrella (Flood)” value (sedge, umbrella) was 98 and the “Plant response rating, Rice (Flood)” value (rice) was 25. For the same compound, the “Plant response rating, Barnyardgrass” value (barnyardgrass [7]) was 80, the “Barnyardgrass plant response rating” value (barnyardgrass [7]) was 60 and the “Plant response rating, Horseweed” value (horseweed; [24]) was 60. The “Plant response rating, Horseweed” value (horseweed; [25]) was 50, the “Plant response rating, Barnyardgrass” value (barnyardgrass [8]; [24]) was 60 and the “Plant response rating, Barnyardgrass” value (barnyardgrass [8]; [25]) was 90. For the same compound, the “Plant response rating, Blackgrass” value (blackgrass [9]) was 60, the “Blackgrass plant response rating” value (blackgrass [9]) was 20 and the “Kochia plant response rating” value (kochia [10]; 500 g ai/ha) was 90. The “Kochia plant response rating” value (kochia [10]; Test C, 125 g ai/ha) was 90, the “Plant response rating, Ryegrass, Italian” value (ryegrass, Italian [11]) was 60 and the “Plant response rating, Foxtail, Green” value (green foxtail [12]; [24]) was 70. For the same compound, the “Plant response rating, Foxtail, Green” value (green foxtail [12]; [25]) was 90, the “Pigweed, Palmer plant response rating” value (pigweed, palmer [13]; 500 g ai/ha) was 100 and the “Pigweed, Palmer plant response rating” value (pigweed, palmer [13]; Test C, 125 g ai/ha) was 90. For the same compound, the “Plant response rating, Ragweed” value (ragweed [14]) was 70, the “Foxtail, Green plant response rating” value (green foxtail [15]; 500 g ai/ha) was 100 and the “Foxtail, Green plant response rating” value (green foxtail [15]; Test C, 125 g ai/ha) was 100. For the same compound, the “Ryegrass, Italian plant response rating” value (ryegrass, Italian [16]; 500 g ai/ha) was 90, the “Ryegrass, Italian plant response rating” value (ryegrass, Italian [16]; Test C, 125 g ai/ha) was 70 and the “Soybean plant response rating” value (soybean [17]; 500 g ai/ha) was 90. For the same compound, the “Soybean plant response rating” value (soybean [17]; Test C, 125 g ai/ha) was 90, the “Plant response rating, Wheat” value (wheat [18]) was 20 and the “Plant response rating, Kochia” value (kochia [19]) was 90. The “Plant response rating, Oat, Wild” value (oat, wild [20]) was 0, the “Plant response rating, Blackgrass” value (blackgrass [21]; [24]) was 30 and the “Plant response rating, Blackgrass” value (blackgrass [21]; [25]) was 50. For the same compound, the “Plant response rating, Ducksalad (Flood)” value (ducksalad) was 50, the “Plant response rating, Galium” value (galium; [24]) was 100 and the “Plant response rating, Galium” value (galium; [25]) was 100. The “Plant response rating, Pigweed, Palmer” value (pigweed, palmer [22]) was 90, the “Wheat plant response rating” value (wheat [23]; 500 g ai/ha) was 30 and the “Wheat plant response rating” value (wheat [23]; Test C, 125 g ai/ha) was 20.

`COc1ccc(-n2cnc(C(C)C)n2)cc1C(=O)N1C[C@H](C)Oc2c(F)cccc21` [Compound 269] was tested, and the “Ragweed plant response rating” value (ragweed [1]; 500 g ai/ha) was 100, the “Ragweed plant response rating” value (ragweed [1]; Test C, 125 g ai/ha) was 100 and the “Oat, Wild plant response rating” value (oat, wild [2]; 500 g ai/ha) was 90. The “Oat, Wild plant response rating” value (oat, wild [2]; Test C, 125 g ai/ha) was 60, the “Corn plant response rating” value (corn [3]; 500 g ai/ha) was 90 and the “Corn plant response rating” value (corn [3]; Test C, 125 g ai/ha) was 20. The “Plant response rating, Corn” value (corn [4]; [24]) was 80, the “Plant response rating, Corn” value (corn [4]; [25]) was 100 and the “Plant response rating, Soybean” value (soybean [5]) was 100. The “Plant response rating, Barnyardgrass (Flood)” value (barnyardgrass [6]) was 45, the “Plant response rating, Sedge, Umbrella (Flood)” value (sedge, umbrella) was 98 and the “Plant response rating, Rice (Flood)” value (rice) was 10. For the same compound, the “Plant response rating, Barnyardgrass” value (barnyardgrass [7]) was 100, the “Barnyardgrass plant response rating” value (barnyardgrass [7]) was 100 and the “Plant response rating, Horseweed” value (horseweed; [24]) was 20. The “Plant response rating, Horseweed” value (horseweed; [25]) was 90, the “Plant response rating, Barnyardgrass” value (barnyardgrass [8]; [24]) was 80 and the “Plant response rating, Barnyardgrass” value (barnyardgrass [8]; [25]) was 100. The “Plant response rating, Blackgrass” value (blackgrass [9]) was 90, the “Blackgrass plant response rating” value (blackgrass [9]) was 90 and the “Kochia plant response rating” value (kochia [10]; 500 g ai/ha) was 100. For the same compound, the “Kochia plant response rating” value (kochia [10]; Test C, 125 g ai/ha) was 90, the “Plant response rating, Ryegrass, Italian” value (ryegrass, Italian [11]) was 100 and the “Plant response rating, Foxtail, Green” value (green foxtail [12]; [24]) was 90. For the same compound, the “Plant response rating, Foxtail, Green” value (green foxtail [12]; [25]) was 90, the “Pigweed, Palmer plant response rating” value (pigweed, palmer [13]; 500 g ai/ha) was 100 and the “Pigweed, Palmer plant response rating” value (pigweed, palmer [13]; Test C, 125 g ai/ha) was 100. The “Plant response rating, Ragweed” value (ragweed [14]) was 70, the “Foxtail, Green plant response rating” value (green foxtail [15]; 500 g ai/ha) was 100 and the “Foxtail, Green plant response rating” value (green foxtail [15]; Test C, 125 g ai/ha) was 100. For the same compound, the “Ryegrass, Italian plant response rating” value (ryegrass, Italian [16]; 500 g ai/ha) was 100, the “Ryegrass, Italian plant response rating” value (ryegrass, Italian [16]; Test C, 125 g ai/ha) was 100 and the “Soybean plant response rating” value (soybean [17]; 500 g ai/ha) was 90. The “Soybean plant response rating” value (soybean [17]; Test C, 125 g ai/ha) was 90, the “Plant response rating, Wheat” value (wheat [18]) was 80 and the “Plant response rating, Kochia” value (kochia [19]) was 80. For the same compound, the “Plant response rating, Oat, Wild” value (oat, wild [20]) was 80, the “Plant response rating, Blackgrass” value (blackgrass [21]; [24]) was 80 and the “Plant response rating, Blackgrass” value (blackgrass [21]; [25]) was 90. For the same compound, the “Plant response rating, Ducksalad (Flood)” value (ducksalad) was 100, the “Plant response rating, Galium” value (galium; [24]) was 90 and the “Plant response rating, Galium” value (galium; [25]) was 100. The “Plant response rating, Pigweed, Palmer” value (pigweed, palmer [22]) was 90, the “Wheat plant response rating” value (wheat [23]; 500 g ai/ha) was 100 and the “Wheat plant response rating” value (wheat [23]; Test C, 125 g ai/ha) was 100.
